From US20230181564A1, “Potent Tetrahydroquinolone Eliminates Apicomplexan Parasites” (The University of Chicago, priority 2020, published 2023)

Columns and labels:
[1] = Metabolic stability in human liver microsomes; format: in vitro ADME
Description: PBS Sol/Toxicity pH7.4 refers to solubility of the compound in Phosphate Buffered Saline (PBS) at pH7.4. […] Parasites were RH-YFP expressing tachyzoites (Tachy) and EGS (Brady) strains. Studies of effects of inhibitors on HFF or on T.gondii tachyzoites were performed with triplicate wells in at least two biological replicate experiments. Studies of effects on bradyzoites were performed at least twice in at least two biological replicate experiments. Compounds with much less inhibition of mammalian than T. gondii cytochrome bc in the saffarine enzyme assay (indicated by **) provide potential to further develop compounds, if unanticipated toxicity occurs from JAG21.
Structure Activity Relationship (SAR) and comparison of effect on T.gondii and HFF enzyme activity. […] The MDCK-MDR1 Permeability Assay was also performed. […] These were measured by Chem Partners.

[2] = system: T. gondii EGS strain bradyzoites; experiment: In vitro challenge assay for EGS strain bradyzoites in HFF; format: cell-based, Toxoplasma gondii; details: 500 nM
Description: PBS Sol/Toxicity pH7.4 refers to solubility of the compound in Phosphate Buffered Saline (PBS) at pH7.4. […] Tachy/Brady IC50 was determined in studies in which cultures of parasites in HFF were treated with varying concentrations of the compound and there was 50% inhibition of the replication (number) of parasites. Parasites were RH-YFP expressing tachyzoites (Tachy) and EGS (Brady) strains. Studies of effects of inhibitors on HFF or on T.gondii tachyzoites were performed with triplicate wells in at least two biological replicate experiments. Studies of effects on bradyzoites were performed at least twice in at least two biological replicate experiments. Compounds with much less inhibition of mammalian than T. gondii cytochrome bc in the saffarine enzyme assay (indicated by **) provide potential to further develop compounds, if unanticipated toxicity occurs from JAG21. […]
Cells were fixed using 4% paraformaldehyde and stained with Fluorescein-labeled Dolichos Biflorus Agglutinin, DAPI, and BAG1. […] Effects of compounds were quantitated by counting cysts in controls and treated cultures. Dolichos staining delimited structures and single organisms that remained were counted in a representative field of view. This was then multiplied by a factor determined by the total area of the cover slip in order to estimate the number of cysts and organisms in each condition. […]

Which results are given for Cc1[nH]c2c(c(=O)c1-c1ccc(Oc3ccc(OC(F)(F)F)cc3)cc1)CCCC2 [JAG021, 2-methyl-3-(4-(4-(trifluoromethoxy)phenoxy)phenyl)-5,6,7,8-tetrahydroquinolin-4-one]?
Remaining in human liver microsomes ([1]; after 45 minutes): > 99%; half-life ([1]; predicted half-life in human liver microsomes, unit in cell, read-out: T1/2 (H)): > 7 days; EGS bradyzoites in treated cultures [2]: not seen
